# Laboratory results taken from patent US5198445A, “Composition and use of substituted 3-thio-2-propynenitriles as industrial antimicrobials” (The Dow Chemical Company, priority 1992, dated 1993).
# Like-named read-outs stand apart in the source and are kept apart here.
# Tests used:
# [1] = tested on: Enterobacter aerogenes (Ea); assay: MIC in nutrient agar, Enterobacter aerogenes; assay type: cell-based, Enterobacter aerogenes ATCC 13048
# Experimental: (§1) The minimum inhibitory concentration (MIC) for the compounds listed in Table I is determined for 9 bacteria, using nutrient agar, and 7 yeast and fungi, using malt yeast agar. A one percent solution of the test compound is prepared in a mixture of acetone and water. Nutrient agar is prepared at pH 6.8, representing a neutral medium, and at pH 8.2, representing an alkaline medium. The nutrient agars are prepared by adding 23 g of nutrient agar to one-liter of deionized water. In addition, the alkaline medium is prepared by adjusting a 0.04M solution of N-[tris-(hydroxymethyl)methyl]-glycine buffered deionized water with concentrated sodium hydroxide to a pH of […]. Malt yeast agar is prepared by adding 3 g yeast extract and 45 g malt agar per liter of deionized water. The specific agar is dispensed in 30 ml aliquots into 25×200 mm test tubes, capped and autoclaved for 15 minutes at 115° C. The test tubes containing the agar are cooled in a water bath until the temperature of the agar is 48° C. Then, an appropriate amount of the one percent solution of the test compound is added (except in the controls where no compound is added) to the respective test tubes so that the final concentrations are 500, 250, 100, 50, 25, 10, 5, 2.5, 1.0 and zero parts per million of the test compound in the agar, thus having a known concentration of test compound dispersed therein. The contents of the test tubes are then transferred to respective petri plates. After drying for 24 hours, the petri plates containing nutrient agar are inoculated with bacteria and those containing malt yeast agar are inoculated with yeast and fungi.
# (§2) The inoculation with bacteria is accomplished by using the following procedure. Twenty-four hour-cultures of each of the bacteria are prepared by incubating the respective bacteria in tubes containing nutrient broth for 24 hours at 30° C. in a shaker. Dilutions of each of the 24 hour-cultures are made so that nine separate suspensions (one for each of the nine test bacteria) are made, each containing 10^8 colony forming units (CFU) per ml of suspension of a particular bacteria. Aliquots of 0.3 ml of each of the bacterial suspensions are used to fill the individual wells of Steer's Replicator. For each microbial suspension, 0.3 ml was used to fill three wells (i.e., three wells of 0.3 ml each) so that for the nine different bacteria, 27 wells are filled. The Steer's Replicator is then used to inoculate both the neutral and alkaline pH nutrient agar petri plates.
# (§3) The inoculated petri plates are incubated at 30° C. for 48 hours and then read to determine if the test compound which is incorporated into the agar prevented growth of the respective bacteria.
# (§4) Table II lists the bacteria, yeast and fungi used in the MIC test described above along with their respective American Type Culture Collection (ATCC) identification numbers.
# (§5) The following MIC and MEC antimicrobial tests, whose results are shown in Tables XIII-XVII, are performed using the same methods as described hereinabove.
# Proteus vulgaris (Pv) = assay: MIC in nutrient agar, Proteus vulgaris; assay type: cell-based, Proteus vulgaris ATCC 881
# Experimental: as §1, §2, §3, §4, §5
# [2] = tested on: Pseudomonas aeruginosa (PRD-10); assay: MIC in nutrient agar, Pseudomonas aeruginosa PRD-10; assay type: cell-based, Pseudomonas aeruginosa ATCC 15442
# Experimental: as §1, §2, §3, §4, §5
# Aspergillus niger (An) = assay: MIC in malt yeast agar, Aspergillus niger; assay type: cell-based, Aspergillus niger ATCC 16404; conditions: read-out: Minimum Inhibitory Concentration, An
# Experimental: as §1
# (§6) The inoculation with the yeast and fungi is accomplished as follows. Cultures of yeast and fungi are incubated for seven days on malt yeast agar at 30° C. These cultures are used to prepare suspensions by the following procedure. A suspension of each organism is prepared by adding 10 ml of sterile saline and 10 microliters of octylphenoxy polyethoxy ethanol (TRITON® X-100, a trademark of Rohm & Haas Company) to the agar slant of yeast or fungi. The sterile saline/octylphenoxy polyethoxy ethanol solution is then agitated with a sterile swab to suspend the microorganism grown on the slant. Each resulting suspension is diluted into sterile saline (1 part suspension: 9 parts sterile saline). Aliquots of these dilutions are placed in individual wells of Steer's Replicator and petri plates inoculated as previously described. The petri plates are incubated at 30° C. and read after 48 hours for yeast and 72 hours for fungi.
# as §4, §5
# Candida albicans (Ca) = assay: MIC in malt yeast agar, Candida albicans; assay type: cell-based, Candida albicans ATCC 10231; conditions: read-out: Minimum Inhibitory Concentration, Ca
# Experimental: as §1, §6, §4, §5
# Trichoderma viride (Tv) = assay: MIC in malt yeast agar, Trichoderma viride; assay type: cell-based, Trichoderma viride ATCC 8678; conditions: read-out: Minimum Inhibitory Concentration, Tv
# Experimental: as §1, §6, §4, §5
# [3] = tested on: Aureobasidium pullulan (Ap); assay: MIC in malt yeast agar, Aureobasidium pullulan; assay type: cell-based, Aureobasidium pullulan ATCC 16622; conditions: read-out: Minimum Inhibitory Concentration, Ap
# Experimental: as §1, §6, §4, §5
# Fusarium oxysporum (Fo) = assay: MIC in malt yeast agar, Fusarium oxysporum; assay type: cell-based, Fusarium oxysporum ATCC 48112; conditions: read-out: Minimum Inhibitory Concentration, Fo
# Experimental: as §1, §6, §4, §5
# [4] = tested on: mixture of the bacterial organisms listed in Table II; assay: Multiple Challenge Test in hand lotion formulation; assay type: cell-based, bacteria listed in Table II; conditions: 10 challenges
# Experimental: Additionally, the ability of the compounds of Table I to serve as preservatives in a variety of formulated industrial, household, and commercial products is tested using a Multiple Challenge Test Protocol. In this test, the formulations include a styrene-butadiene latex, a tape joint, a hand lotion, and a shampoo. The styrene-butadiene latex test formulation used is Latex DL 238A, available from The Dow Chemical Company. The compositions of the tape joint, hand lotion and shampoo test formulations can be found in Tables V-VII.
# The formulations are separated into 50 g aliquots and placed in sterile bottles. An appropriate amount of a fresh one percent stock solution of the test compound in acetone-water is added to achieve the desired final concentrations. A small portion of each of the test formulations is streaked onto Tryptic Soy Agar (TSA) petri plates using sterile cotton swabs to ensure that the formulations are sterile. If the formulation is sterile, then it is inoculated with 0.1 ml of a mixture of equal aliquots of the 24 hour cultures of each of the bacterial organisms listed in Table II. The test formulations are then incubated at 30° C. After 24 hours, each sample is streaked onto a TSA petri plate using a sterile swab. All plates are then incubated at 30° C. for 48 hours and then rated for microbial growth using the rating system listed in Table VIII. Samples with a rating of 3 or less are reinoculated as described in the procedure for the first inoculation. Samples with a rating of 4 or greater are not reinoculated but after another 24 hours are restreaked on TSA agar.
# The normal interpretation of the results is that a concentration of the antimicrobial being tested is considered to be effective if no ratings greater than a 3 are observed throughout the 10 challenges. The Minimum Effective Concentration (MEC), which is used to compare the activity of the antimicrobial additives in the end-use formulations, is the minimum level that is effective under the conditions of the Multiple Challenge Test.
# [5] = Klebsiella aerogenes, pH 6.8, read-out: Minimum Inhibitory Concentration, Ea
# [6] = Klebsiella aerogenes, pH 8.2; read-out: Minimum Inhibitory Concentration, Ea
# [7] = pH 6.8, read-out: Minimum Inhibitory Concentration, Pv
# [8] = pH 8.2, read-out: Minimum Inhibitory Concentration, Pv
# [9] = Pseudomonas aeruginosa, pH 6.8; read-out: Minimum Inhibitory Concentration, PRD
# [10] = Pseudomonas aeruginosa, pH 8.2; read-out: Minimum Inhibitory Concentration, PRD
# [11] = Klebsiella aerogenes, pH 6.8; read-out: Minimum Inhibitory Concentration, Ea
SMILES,"MIC [1, 5]","MIC [1, 6]",MIC (Proteus vulgaris (Pv); [7]),MIC (Proteus vulgaris (Pv); [8]),"MIC [2, 9]","MIC [2, 10]",MIC (Aspergillus niger (An); malt yeast agar),MIC (Candida albicans (Ca); malt yeast agar),MIC (Trichoderma viride (Tv)),MIC ([3]; malt yeast agar),MIC (Fusarium oxysporum (Fo); malt yeast agar),MEC [4],"MIC [1, 11]",MIC (Trichoderma viride (Tv); malt yeast agar),other results
"CCSC#CC#N [B, 3-ethylthio-2-propynenitrile]",25 µg/mL,25 µg/mL,< 1 µg/mL,5 µg/mL,25 µg/mL,25 µg/mL,2.5 µg/mL,< 1 µg/mL,10 µg/mL,< 1 µg/mL,< 1 µg/mL,25 ppm,,,
"N#CC#CSC1CCCC1 [C, 3-cyclopentylthio-2-propynenitrile]",,100 µg/mL,< 10 µg/mL,< 10 µg/mL,250 µg/mL,250 µg/mL,2.5 µg/mL,,,2.5 µg/mL,< 1 µg/mL,250 ppm,100 µg/mL,2.5 µg/mL,
"CSC#CC#N [Compound A, 3-methylthio-2-propynenitrile]",,25 µg/mL,< 1 µg/mL,2.5 µg/mL,2.5 µg/mL,5 µg/mL,2.5 µg/mL,0.5 µg/mL,,2.5 µg/mL,0.5 µg/mL,10 ppm,2.5 µg/mL,0.25 µg/mL,"Minimum Inhibitory Concentration, PRD ([2]; pH 8.2): 5 ppm"
"CSC=C(Cl)C#N [Compound G, 2-chloro-3-(methylthio)-2-propenenitrile]",50 µg/mL,,50 µg/mL,5 µg/mL,,,,,100 µg/mL,,,,,,"MIC ([1]; Klebsiella aerogenes, pH 8.2, read-out: Minimum Inhibitory Concentration, Ea): 10 µg/mL; MIC ([2]; Pseudomonas aeruginosa, pH 6.8, read-out: Minimum Inhibitory Concentration, PRD): 50 µg/mL; MIC ([2]; Pseudomonas aeruginosa, pH 8.2, read-out: Minimum Inhibitory Concentration, PRD): 10 µg/mL; MIC (Aspergillus niger (An)): 50 µg/mL; MIC (Candida albicans (Ca)): 50 µg/mL; MIC [3]: 50 µg/mL; MIC (Fusarium oxysporum (Fo)): 50 µg/mL"
"N#CC#CSc1ccc(Cl)cc1 [D, 3-(4-chlorophenylthio)-2-propynenitrile]",,50 µg/mL,< 10 µg/mL,50 µg/mL,25 µg/mL,100 µg/mL,< 1 µg/mL,< 1 µg/mL,,< 1 µg/mL,< 1 µg/mL,250 ppm,< 10 µg/mL,2.5 µg/mL,
